In patent US4127687A, “Prevention of fouling of marine structures such as boat hulls” (Rohm and Haas Company, priority 1976, dated 1978):
Values after ≈ are worked out from the molar mass of the structure shown. Like-named read-outs stand apart in the source and are kept apart here.

Assays:
[1] = tested on: sea water marine organisms; assay: Effectiveness as sea water marine anti-foulant; format: in vivo; settings: result in words
Source text: The results in anti-fouling paints when utilizing the 3-isothiazolones of the patents noted above, are not predictable from their effectiveness as general biocides, whether against fresh water algae, bacteria, fungi, insects, etc.
Of the compounds appearing hereinafter in the examples, a number are common to Table 1 appearing in columns 9-12 of the U.S. Pat. No. 3,573,488 patent. Among the compounds common to the latter patent and the present specification are the compounds identified in the patent as example numbers 3, 5-8, 13, 23, 24, 33, 36, 37, the n-octyl isomer of examples 38, 40, 75, 76, 79, 84, and 93-96.
In example B of the U.S. Pat. No. 3,573,448 patent (appearing in columns 22-24) involving the control of algae, bacteria, fungi, and slime in fresh water cooling towers, not one of the compounds, or in some cases its homologue or analog, was effective as a salt water marine anti-foulant. […]
In the following examples, two systems of testing the compounds and evaluating the same are utilized. One involves the utilization of a confined amount of the materials to be evaluated in a cylindrical container having an open end covered by a membrane permeable to a limited extent by the sea water and by the compound in the container. The other method involves making up an anti-fouling paint and testing the same. In a four month period, meaningful results are obtained, and for a full scale test, a six month period, bracketing the summer months, is preferred. The evaluations involving (1) field tests, (2) laboratory tests, and (3) paint panel tests, are as follows: […]

weed [2] = assay: Membrane Diffusion Raft Trials, weed control; format: in vivo, grass-like algal growth common in sea water; set-up: key: 0 = none, + = some, ++ = effective; settings: membrane test, average 15 to 16 weeks of immersion
Procedure, shortened: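 Field raft test in sea water: known quantity of compound in container sealed with membrane of known porosity, diffusing into surrounding water; panels at waterline (illuminated, aerated) and flats (poorly lit, deeper). Fouling settlement inspected over about 15-16 weeks average immersion; scored 0 none, + some, ++ effective.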

barnacle = assay: Membrane Diffusion Raft Trials, barnacle control; format: in vivo, barnacles; set-up: key: 0 = none, + = some, ++ = effective barnacle control; settings: membrane test, average 15 to 16 weeks of immersion
Procedure, shortened: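 Test compound held in a plastic container sealed by a porous membrane, diffusing into surrounding seawater on raft panels alongside standard poisons and a non-toxic control membrane. Settlement timed and quantified by regular inspection; scored 0 (none), + (some) or ++ (effective), averaging 15 to 16 weeks' immersion.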

[3] = Amount of toxicant remaining in the test container after membrane diffusion raft tests; format: physicochemical; set-up: key: 0: empty or trace; +: some; + +: ample; settings: after completion of membrane diffusion raft tests
Procedure, shortened: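 Known amount of compound held in a cylindrical container sealed with a membrane of known porosity, fixed to a raft panel so toxicant diffuses into the surrounding water. Each panel carries 35 test compounds, 4 standard poisons and 1 non-toxic membrane control. After the trial, container contents inspected visually for remaining toxicant (0 = empty or trace).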

[4] = Water solubility by UV spectrophotometric method; format: physicochemical; settings: water
Procedure, shortened: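 Molar absorptivity determined from UV absorbance of a known-concentration aqueous solution at λmax (10 cm cell). Saturated solution prepared by stirring excess compound in deionized water ~72 hrs, filtered, diluted to mid-scale absorbance; solubility calculated from absorbance using that absorptivity.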

Hydroids = assay: Membrane test, hydroids (Table 1 footnote d); format: in vivo; set-up: key: Effective against Hydroids
Source text: 1). FIELD TESTS: - Membrane Diffusion Raft Trials
A known quantity of the test compound is placed into a cylindrical plastic container whose open end is then covered with a membrane of known porosity; the complete unit is attached to the appropriate raft panel so that the poison can freely diffuse into the free water layer around it. Regular inspections, recording time and quantity of settlement, allow a life history of each membrane trial to be constructed. Each raft panel contains 35 compounds to be evaluated together with 4 standard poisons and 1 non-toxic membrane for control.
The behavior on the raft can thus be compared with that of the standard poisons and the non-toxic control. At normal loading a membrane over the standard poisons would be free from macro-fouling after six months immersion. Compounds showing selective effects against restricted groups of fouling organisms also show up by membrane testing.
^d Effective against Hydroids.

weed [5] = assay: Paint panel / plaque tests against weed (Table 2); format: in vivo, grass-like algal growth common in sea water; set-up: key: high performance; medium performance; low performance; poor or unacceptable performance; settings: April to November, 1975
Source text: (3) PAINT FORMULATION AND TEST PANEL OR PLAQUE TESTS
In order to evaluate the compound under practical conditions, weighed quantities of promising compounds are ground in standard volumes of a selected range of paint media and brushed out on plaques for marine immersion.
The anti-fouling paint formulations used is exemplified by the following: […]
The most preferred specific compounds were utilized in paints including vinyl chloride-vinyl acetate copolymers, chlorinated rubber, acrylic emulsions, and conventional paints with or without rosin to contain 20% by weight of biocide in the wet film and in some cases (Example 144 and Example 145) with concentrations of 5, 10, and 15% based on the wet film. Each of the compounds is also described in the membrane tests noted above. The paints were applied at normal thicknesses to plaques or panels of 10 centimeters by 10 centimeters which were immersed in various positions as described for the raft noted above. The compounds and results, as against weed, in the season April to November, 1975, are as follows: […]

Enteromorpha spores = assay: Laboratory toxicity test (Lab Bioassay) with Enteromorpha spores; format: in vivo; settings: using Enteromorpha spores
Procedure, shortened: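 Enteromorpha spores (zoospores or gametes) exposed to test compounds in laboratory toxicity tests. LD50 values expressed as percentage saturated solution.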

[6] = saturated solution, Table 1, read-out: Solubility by UV method

Row | Compound | effectiveness as anti-foulant in sea water marine environments [1] | Weed Control (weed [2]) | Barnacle Control (barnacle) | Contents at the end of test (amount of toxicants remaining in the test container) [3] | solubility [4, 6] | other results
1 | O=c1cc(Cl)sn1Cc1ccccc1 [5-chloro-2-benzyl-3-isothiazolone] | effective in both environments | – | – | – | – | –
2 | Cn1sc(Cl)cc1=O [5-chloro-2-methyl-3-isothiazolone, reference compound] | ineffective as anti-foulants | – | – | – | – | –
3 | CCCCn1sccc1=O [Example 1, 2-n-butyl-3-isothiazolone] | ineffective as anti-foulants | 0 | 0 | 0 | – | –
4 | CCCCCCn1sccc1=O [Example 2, 2-n-hexyl-3-isothiazolone] | not active for controlling sea water marine organisms | 0 | 0 | 0 | 5100 µg/mL (≈ 27500 µM) | effectiveness as anti-foulant in sea water marine environments ([1]; listed as hexyl homologue of 2-n-butyl-3-isothiazolone): ineffective as anti-foulants
5 | CCCCCCCCn1sccc1=O [Example 3, 2-n-octyl-3-isothiazolone] | not active for controlling sea water marine organisms | 0 | 0 | 0 | – | effectiveness as anti-foulant in sea water marine environments ([1]; listed as octyl homologue of 2-n-butyl-3-isothiazolone): ineffective as anti-foulants; effectiveness as anti-foulant in sea water marine environments ([1]; listed as octyl homologue of 2-n-decyl-3-isothiazolone): not active for controlling sea water marine organisms; solubility [4]: 481 µg/mL (≈ 2250 µM)
6 | CC(C)(C)CC(C)(C)n1sccc1=O [Example 4, 2-t-octyl-3-isothiazolone] | not active for controlling sea water marine organisms | 0 | 0 | 0 | 410 µg/mL (≈ 1920 µM) | –
7 | CCCCCCCCCCCCn1sccc1=O [Example 5] | not active for controlling sea water marine organisms | 0 | 0 | + | – | –
8 | CCCCCCCCn1sc(Cl)cc1=O [Example 16] | – | + + | + + | 0 | 66 µg/mL (≈ 266 µM) | Effective against Hydroids (footnote mark d) (Hydroids): d
9 | CCCCCCCCCCn1sc(Cl)cc1=O [Example 22] | – | + + | + + | 0 | 7.2 µg/mL (≈ 26.1 µM) | Effective against Hydroids (footnote mark d) (Hydroids): d
10 | CCCCn1sc(Cl)c(Cl)c1=O [Example 55] | control or inhibit the growth of one or more sea water marine organisms | + + | + | + | 1000 µg/mL (≈ 4420 µM) | –
11 | CCCCCCn1sc(Cl)c(Cl)c1=O [Example 56] | control or inhibit the growth of one or more sea water marine organisms | + + | + + | 0 | 115 µg/mL (≈ 452 µM) | –
12 | CCCCCCCCn1sc(Cl)c(Cl)c1=O [Example 57] | – | + + | + + | + + | 2.3 µg/mL (≈ 8.15 µM) | Effectiveness in paint CONV (conventional anti-fouling formulation) (weed [5]): m; Effectiveness in paint CR (chlorinated rubber) (weed [5]): h; Effectiveness in paint EM (acrylic emulsion) (weed [5]): h; Effectiveness in paint V (polyvinyl chloride-acetate) (weed [5]): h; Effectiveness in paint V/R (vinyl/rosin) (weed [5]): h; Lab Bioassay LD50 (Enteromorpha spores): 0.001 percentage saturated solution; Effective against Hydroids (footnote mark d) (Hydroids): d
13 | CCCCCCCCn1sc(Cl)c(Br)c1=O [Example 88] | – | + + | + + | + | 2.6 µg/mL (≈ 7.96 µM) | Effective against Hydroids (footnote mark d) (Hydroids): d
14 | O=c1c(Cl)c(Cl)sn1-c1ccc(Cl)cc1 [Example 145, 4,5-dichloro-2(4'-chlorophenyl)-3-isothiazolone] | effective in anti-fouling environments | – | – | – | – | Effectiveness in paint CONV (conventional anti-fouling formulation) (weed [5]): h; Effectiveness in paint CR (chlorinated rubber) (weed [5]): h; Effectiveness in paint EM (acrylic emulsion) (weed [5]): h; Effectiveness in paint V (polyvinyl chloride-acetate) (weed [5]): h; Effectiveness in paint V/R (vinyl/rosin) (weed [5]): h
